By viability is commonly meant a per cent measure of how many cells are alive, often set against a control.

For one assay, the system named is MIAPaCa-2 cells. As to the kind of experiment: Alamar Blue assay with a monolayer cell culture. The assay is classed as cell-based. Conditions: Homo sapiens, MIA PaCa-2, MIAPaCa-2 monolayer, 10 μM gemcitabine or equivalent encapsulated, 72 hours. As to the method:
(§1) Pancreatic-cancer cell lines PANC-1 and MIAPaCa-2 were obtained from American Type Culture Collection (Manassas, Va.). PANC-1 cells were cultured in RPMI media (without phenol red) that were supplemented with 2% antibiotics (penicillin, streptomycin) and 10% v/v fetal bovine serum. The MIAPaCa-2 cells were cultured in DMEM media that were supplemented with 2% horse serum and 2% antibiotics. All cell lines were grown at 37° C. in a humidified atmosphere containing 5% CO2.
(§2) Cytotoxicity of the encapsulated gemcitabine was measured by treating the PANC-1 and MIAPaCa-2 cells with nanovesicles. The cells were incubated (1,000 per well) in a 96-well plate after trypsinizing the flask and making a cell suspension. RPMI media (100 μL) were added to each well. Cells were allowed to grow for one doubling time. The plate was divided into three groups: control, gemcitabine treated and gemcitabine-encapsulated nanovesicles treated. Six replicates were recorded for each sample. […] The treatment was carried out for 3 days, and cell toxicity was recorded after 72 hours with the Alamar Blue assay by following the supplier's (Life Technologies) protocol. Alamar Blue solution (10 μL) was added to all the wells and incubated for 2 hours, and the absorbance was recorded at 585 nm for cytotoxicity calculation (FIG. 15).
For orientation: The colour change of resazurin is a common sign of viable cells or microbes.

For the next assay, the system named is PANC-1 cells. The assay is described as follows: Alamar Blue assay with a monolayer cell culture. The format is cell-based. To be noted: Homo sapiens, PANC-1 monolayer, 10 μM gemcitabine or equivalent encapsulated, 72 hours. How it is done: as §1, §2
A further assay addresses recombinant human MMP-9 (Homo sapiens, UniProt P14780). The assay is described as follows: CD spectroscopy of triple helicity of nanovesicle-incorporated lipopeptide. The format is biochemical. The source says:
The lipopeptide LP [CH3(CH2)16CONH-[…](GPO)4GG-COOH] was synthesized by employing microwave assisted solid phase peptide synthesizer (Liberty, CEM Corporation, Matthews, S.C.) by following the protocol previously established in our laboratory (Pompella et al., Biochem pharm 2003, 66 (8), 1499-1503). The lipopeptide was purified by reverse phase HPLC (Shimadzu Scientific Instruments) using a diphenyl semi-preparatory column (Grace Vydac, 300 Å pore diameter silica, 5 μm particle size, 10 mm×250 mm) as the stationary phase. A linear gradient (0-70%) of acetonitrile (with 0.1% trifluoroacetic acid) in water (with 0.1% trifluoroacetic acid) was used at a flow rate of 8 mL/min over 60 min. The chromatogram was recorded at 235 nm using a UV detector. After freeze drying the eluents, the peptide was characterized employing MALDI-TOF mass spectrometry with an AB 4800 MALDI TOF/TOF mass analyzer. An observed mass of 2332.3 Da in MALDI spectra confirmed the LP (calculated mass: 2332.2 Da). The collagen mimetic triple helical structure of the lipopeptide was assessed by CD spectrometry employing a Jasco J-815 CD spectrometer with a quartz cuvette of 1 mm path length. The positive peak at 222 nm and the negative peak at 198 nm confirmed the triple helical structure of collagen mimetic peptide.20 For the CD spectroscopic studies, 32 accumulations were recorded for each spectra.

recombinant human MMP-9, sequence (P14780 94-707): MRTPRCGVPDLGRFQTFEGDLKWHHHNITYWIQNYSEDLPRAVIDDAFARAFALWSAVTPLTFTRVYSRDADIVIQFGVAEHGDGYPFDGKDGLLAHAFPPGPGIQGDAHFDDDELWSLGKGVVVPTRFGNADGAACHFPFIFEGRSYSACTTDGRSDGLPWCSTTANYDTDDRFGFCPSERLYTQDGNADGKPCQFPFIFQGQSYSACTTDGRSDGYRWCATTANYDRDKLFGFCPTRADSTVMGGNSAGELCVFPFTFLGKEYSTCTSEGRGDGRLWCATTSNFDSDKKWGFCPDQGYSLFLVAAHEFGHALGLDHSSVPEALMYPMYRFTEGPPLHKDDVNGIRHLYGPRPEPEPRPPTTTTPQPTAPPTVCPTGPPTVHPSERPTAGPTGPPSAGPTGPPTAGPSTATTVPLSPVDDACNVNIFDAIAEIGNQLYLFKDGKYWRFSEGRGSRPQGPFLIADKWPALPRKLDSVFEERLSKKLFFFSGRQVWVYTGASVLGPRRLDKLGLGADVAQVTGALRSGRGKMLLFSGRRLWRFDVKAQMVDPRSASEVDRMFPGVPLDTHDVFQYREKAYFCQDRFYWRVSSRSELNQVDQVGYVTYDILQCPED

Regarding `Nc1ccn([C@@H]2O[C@H](CO)[C@@H](O)C2(F)F)c(=O)n1` [gemcitabine], the viability at 10 µM with MIAPaCa-2 cells was in the range of 45 to 50%; with PANC-1 cells it was 30 to 35%.
Turning to “CH3(CH2)16CONH-GPQGIAGQR(GPO)4GG-COOH [LP]”, the “triple helicity of LP (CD)” value at recombinant human MMP-9 (2 μM recombinant human MMP-9, 60 minutes) is “considerably reduced”. The “triple helicity of nanovesicle-incorporated LP (CD)” value at recombinant human MMP-9 (GSH (50 μM), 1 hour) was “unchanged”.

Source of the values: US9457041B2, “Controlled release nanoparticles and methods of use” (NDSU Research Foundation, priority 2014, dated 2016).
